{"source": "the NIST ThermoML archive (doi:10.1016/j.jct.2009.05.004)", "assay": "mn = molality of the nth substance listed, in mol/kg", "conditions": "Liquid, Vibrating tube method", "note": "± gives the expanded uncertainty stated by the source.", "data": [{"smiles": "[Br-].[Br-].[Zn+2]", "note": "[zinc bromide] + CCO", "values": [{"measurement": "mass density", "setting": "393.12 K, 34930 kPa, m1 = 0.4384", "result": "801.35 ± 0.71", "unit": "kg/m3"}, {"measurement": "mass density", "setting": "393.12 K, 39767 kPa, m1 = 1.887", "result": "1000.55 ± 0.61", "unit": "kg/m3"}, {"measurement": "mass density", "setting": "393.13 K, 9820 kPa, m1 = 0.4384", "result": "770.68 ± 0.65", "unit": "kg/m3"}, {"measurement": "mass density", "setting": "393.13 K, 19900 kPa, m1 = 1.887", "result": "978.73 ± 0.62", "unit": "kg/m3"}, {"measurement": "mass density", "setting": "393.13 K, 30105 kPa, m1 = 0.9305", "result": "865.29 ± 0.65", "unit": "kg/m3"}, {"measurement": "mass density", "setting": "393.13 K, 39972 kPa, m1 = 0.4384", "result": "806.21 ± 0.72", "unit": "kg/m3"}, {"measurement": "mass density", "setting": "393.14 K, 1801 kPa, m1 = 0.9305", "result": "828.39 ± 0.62", "unit": "kg/m3"}, {"measurement": "mass density", "setting": "393.14 K, 5624 kPa, m1 = 0.3043", "result": "745.3 ± 0.64", "unit": "kg/m3"}, {"measurement": "mass density", "setting": "393.14 K, 9870 kPa, m1 = 0.9305", "result": "840.24 ± 0.63", "unit": "kg/m3"}, {"measurement": "mass density", "setting": "393.14 K, 14926 kPa, m1 = 0.4384", "result": "777.8 ± 0.66", "unit": "kg/m3"}, {"measurement": "mass density", "setting": "393.14 K, 15321 kPa, m1 = 0.05681", "result": "722.2 ± 0.68", "unit": "kg/m3"}, {"measurement": "mass density", "setting": "393.14 K, 19767 kPa, m1 = 0.9305", "result": "853.32 ± 0.64", "unit": "kg/m3"}, {"measurement": "mass density", "setting": "393.14 K, 24945 kPa, m1 = 0.3043", "result": "771.16 ± 0.69", "unit": "kg/m3"}, {"measurement": "mass density", "setting": "393.14 K, 29892 kPa, m1 = 0.1696", "result": "757.28 ± 0.72", "unit": "kg/m3"}, {"measurement": "mass density", "setting": "393.14 K, 29921 kPa, m1 = 0.05681", "result": "740.47 ± 0.74", "unit": "kg/m3"}, {"measurement": "mass density", "setting": "393.14 K, 29972 kPa, m1 = 0.4384", "result": "796.15 ± 0.69", "unit": "kg/m3"}, {"measurement": "mass density", "setting": "393.15 K, 1241 kPa, m1 = 0.05681", "result": "701.02 ± 0.64", "unit": "kg/m3"}, {"measurement": "mass density", "setting": "393.15 K, 1627 kPa, m1 = 0.3043", "result": "739.2 ± 0.63", "unit": "kg/m3"}, {"measurement": "mass density", "setting": "393.15 K, 1798 kPa, m1 = 1.887", "result": "953.48 ± 0.62", "unit": "kg/m3"}, {"measurement": "mass density", "setting": "393.15 K, 1921 kPa, m1 = 1.49", "result": "903.69 ± 0.62", "unit": "kg/m3"}, {"measurement": "mass density", "setting": "393.15 K, 5026 kPa, m1 = 1.49", "result": "908.13 ± 0.62", "unit": "kg/m3"}, {"measurement": "mass density", "setting": "393.15 K, 10025 kPa, m1 = 0.3043", "result": "751.72 ± 0.65", "unit": "kg/m3"}, {"measurement": "mass density", "setting": "393.15 K, 10167 kPa, m1 = 0.1696", "result": "732.24 ± 0.66", "unit": "kg/m3"}, {"measurement": "mass density", "setting": "393.15 K, 10215 kPa, m1 = 0.05681", "result": "714.93 ± 0.66", "unit": "kg/m3"}, {"measurement": "mass density", "setting": "393.15 K, 10412 kPa, m1 = 1.49", "result": "915.55 ± 0.62", "unit": "kg/m3"}, {"measurement": "mass density", "setting": "393.15 K, 15026 kPa, m1 = 1.49", "result": "921.63 ± 0.62", "unit": "kg/m3"}, {"measurement": "mass density", "setting": "393.15 K, 19932 kPa, m1 = 0.05681", "result": "728.38 ± 0.7", "unit": "kg/m3"}, {"measurement": "mass density", "setting": "393.15 K, 20215 kPa, m1 = 1.49", "result": "928.15 ± 0.62", "unit": "kg/m3"}, {"measurement": "mass density", "setting": "393.15 K, 24815 kPa, m1 = 0.9305", "result": "859.38 ± 0.65", "unit": "kg/m3"}, {"measurement": "mass density", "setting": "393.15 K, 24872 kPa, m1 = 1.887", "result": "984.66 ± 0.62", "unit": "kg/m3"}, {"measurement": "mass density", "setting": "393.15 K, 25654 kPa, m1 = 1.49", "result": "934.64 ± 0.63", "unit": "kg/m3"}, {"measurement": "mass density", "setting": "393.15 K, 29841 kPa, m1 = 0.3043", "result": "776.76 ± 0.71", "unit": "kg/m3"}, {"measurement": "mass density", "setting": "393.15 K, 29885 kPa, m1 = 1.887", "result": "990.35 ± 0.62", "unit": "kg/m3"}, {"measurement": "mass density", "setting": "393.15 K, 29954 kPa, m1 = 1.49", "result": "939.52 ± 0.63", "unit": "kg/m3"}, {"measurement": "mass density", "setting": "393.15 K, 35014 kPa, m1 = 1.49", "result": "944.97 ± 0.63", "unit": "kg/m3"}, {"measurement": "mass density", "setting": "393.15 K, 39824 kPa, m1 = 0.05681", "result": "750.71 ± 0.78", "unit": "kg/m3"}, {"measurement": "mass density", "setting": "393.15 K, 39865 kPa, m1 = 0.3043", "result": "787.01 ± 0.74", "unit": "kg/m3"}, {"measurement": "mass density", "setting": "393.15 K, 39921 kPa, m1 = 1.49", "result": "949.96 ± 0.63", "unit": "kg/m3"}, {"measurement": "mass density", "setting": "393.15 K, 39924 kPa, m1 = 0.1696", "result": "767.7 ± 0.76", "unit": "kg/m3"}, {"measurement": "mass density", "setting": "393.16 K, 1957 kPa, m1 = 0.1696", "result": "720.03 ± 0.64", "unit": "kg/m3"}, {"measurement": "mass density", "setting": "393.16 K, 5064 kPa, m1 = 0.05681", "result": "707.12 ± 0.65", "unit": "kg/m3"}, {"measurement": "mass density", "setting": "393.16 K, 14857 kPa, m1 = 0.1696", "result": "738.74 ± 0.67", "unit": "kg/m3"}, {"measurement": "mass density", "setting": "393.16 K, 15924 kPa, m1 = 0.3043", "result": "759.83 ± 0.67", "unit": "kg/m3"}, {"measurement": "mass density", "setting": "393.16 K, 24739 kPa, m1 = 0.1696", "result": "751.32 ± 0.7", "unit": "kg/m3"}, {"measurement": "mass density", "setting": "393.16 K, 25067 kPa, m1 = 0.05681", "result": "734.81 ± 0.72", "unit": "kg/m3"}, {"measurement": "mass density", "setting": "393.16 K, 34854 kPa, m1 = 0.3043", "result": "782.09 ± 0.72", "unit": "kg/m3"}, {"measurement": "mass density", "setting": "393.16 K, 34855 kPa, m1 = 0.1696", "result": "762.63 ± 0.74", "unit": "kg/m3"}, {"measurement": "mass density", "setting": "393.16 K, 34890 kPa, m1 = 0.9305", "result": "870.24 ± 0.66", "unit": "kg/m3"}, {"measurement": "mass density", "setting": "393.16 K, 35621 kPa, m1 = 0.05681", "result": "746.57 ± 0.76", "unit": "kg/m3"}, {"measurement": "mass density", "setting": "393.16 K, 39922 kPa, m1 = 0.9305", "result": "875.04 ± 0.67", "unit": "kg/m3"}, {"measurement": "mass density", "setting": "393.17 K, 4784 kPa, m1 = 0.4384", "result": "763.23 ± 0.64", "unit": "kg/m3"}, {"measurement": "mass density", "setting": "393.17 K, 14838 kPa, m1 = 0.9305", "result": "847.01 ± 0.64", "unit": "kg/m3"}, {"measurement": "mass density", "setting": "393.17 K, 14975 kPa, m1 = 1.887", "result": "972.19 ± 0.62", "unit": "kg/m3"}, {"measurement": "mass density", "setting": "393.17 K, 19958 kPa, m1 = 0.3043", "result": "765.06 ± 0.68", "unit": "kg/m3"}, {"measurement": "mass density", "setting": "393.18 K, 10012 kPa, m1 = 1.887", "result": "965.38 ± 0.62", "unit": "kg/m3"}, {"measurement": "mass density", "setting": "393.19 K, 1568 kPa, m1 = 0.4384", "result": "758.24 ± 0.63", "unit": "kg/m3"}]}]}
